Measurements: patent US20140023611A1 (priority 2010, published 2014)

Molecular target: T1, rat NaP2b (SLC34A2) (Rattus norvegicus, UniProt Q9JJ09)
T1 construct: host or cells: HEK293
T1 sequence (Q9JJ09 1-695): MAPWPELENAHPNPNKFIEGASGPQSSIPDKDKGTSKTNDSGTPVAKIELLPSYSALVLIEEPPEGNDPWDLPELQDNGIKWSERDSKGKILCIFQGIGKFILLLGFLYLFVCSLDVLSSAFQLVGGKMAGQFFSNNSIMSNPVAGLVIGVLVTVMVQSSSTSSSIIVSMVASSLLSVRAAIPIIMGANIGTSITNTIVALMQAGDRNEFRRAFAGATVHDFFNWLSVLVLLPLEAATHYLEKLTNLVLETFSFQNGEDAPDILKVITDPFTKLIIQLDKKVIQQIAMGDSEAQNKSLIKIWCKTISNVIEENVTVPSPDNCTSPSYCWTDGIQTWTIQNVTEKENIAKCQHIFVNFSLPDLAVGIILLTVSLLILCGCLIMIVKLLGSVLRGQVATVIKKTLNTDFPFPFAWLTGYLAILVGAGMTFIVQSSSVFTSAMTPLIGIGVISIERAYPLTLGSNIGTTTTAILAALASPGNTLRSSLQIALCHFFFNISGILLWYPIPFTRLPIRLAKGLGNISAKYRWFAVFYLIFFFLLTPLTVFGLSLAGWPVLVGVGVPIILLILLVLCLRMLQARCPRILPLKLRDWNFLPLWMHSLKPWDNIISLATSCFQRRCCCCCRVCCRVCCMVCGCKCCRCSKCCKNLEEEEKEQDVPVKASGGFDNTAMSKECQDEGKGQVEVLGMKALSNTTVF
Experiment: Inhibition of NaP2b-mediated Pi (33P) uptake in transfected HEK293 cells, rat NaP2b
Type: cell-based
Details: 33P Pi uptake, 0.1 mM phosphate, value given as pIC50 range
Summary of the method: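 HEK293 cells were transiently transfected with NaP2b cDNA using Lipofectamine and grown near confluence. Compounds were tested at twelve concentrations from 0.1 nM to 30 uM in duplicate, and 33P-phosphate uptake was counted by scintillation after lysis. Results are expressed as pIC50.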

| IC50 [µM] | SMILES |
| --- | --- |
| 10 to 31.6 | CCN(CC)CCN(C)C(=O)c1cccc(SCc2cccc(C(=O)Nc3ccc(N4CCCCC4)cc3-c3cc(C(=O)NCc4cccc(C(F)(F)F)c4)ccn3)c2)c1 [Example 10.8] |
| 1 to 7.94 | CC(C)(Cc1cccc(SCc2cccc(C(=O)Nc3ccc(N4CCCCC4)cc3-c3cc(C(=O)NCc4cccc(C(F)(F)F)c4)ccn3)c2)c1)C(=O)O [Example 8.20] |
| 10 to 31.6 | CN(CCOCCOCCOCCC(=O)O)Cc1cccc(C(=O)Nc2ccc(N3CCCCC3)cc2-c2cc(C(=O)NCc3cccc(C(F)(F)F)c3)ccn2)c1 [Example 43, 2-Methyl-1-(3-((4-(piperidin-1-yl)-2-(4-((3-(trifluoromethyl)benzyl)carbamoyl)pyridin-2-yl)phenyl)carbamoyl)phenyl)-5,8,11-trioxa-2-azatetradecan-14-oic acid] |
| 10 to 31.6 | CC(C)CNC(=O)c1ccnc(-c2cc(N3CCCCC3)ccc2NC(=O)c2cccc(CSCCC(=O)O)c2)c1 [Example 1.8] |
| < 1 | CCN(CC)c1ccc(NC(=O)c2cccc(CCCOCCOCCOCCOCCNS(=O)(=O)c3ccc(CCC(=O)O)cc3)c2)c(-c2cc(C(=O)N[C@H]3CCCc4ccccc43)ccn2)c1 [Example 320] |
| 10 to 31.6 | COCCOCCOCCOCCOCCOCCOCCN(C)C(=O)C1CCN(CCN(C)C(=O)c2cccc(C(=O)Nc3ccc(N4CCCCC4)cc3-c3cc(C(=O)N[C@H]4CCCc5ccccc54)ccn3)c2)CC1 [Example 334, (S)—N^1-(2-(4-(2,5,8,11,14,17,20-Heptaoxadocosan-22-yl(methyl)carbamoyl)piperidin-1-yl)ethyl)-N1-methyl-N3-(4-(piperidin-1-yl)-2-(4-(1,2,3,4-tetrahydronaphthalen-1-ylcarbamoyl)pyridin-2-yl)phenyl)isophthalamide] |
| 1 to 7.94 | CCN(CC)c1ccc(NC(=O)c2cccc(CCCOCCOCCOCCOCCC(=O)NCCOCCOCCOCCOCCOCCOCCOC)c2)c(-c2cc(C(=O)NCc3cccc(C(F)(F)F)c3)ccn2)c1 [Example 260, 2-(5-(diethylamino)-2-(3-(24-oxo-2,5,8,11,17,20,27,30,33,36-undecaoxa-23-azanonatriacontan-39-yl)benzamido)phenyl)-N-(3-(trifluoromethyl)benzyl)isonicotinamide] |
| 1 to 7.94 | CCCN(CCC)c1ccc(NC(=O)c2cccc(C(=O)N(C)CCN3CCOCC3)c2)c(-c2cc(C(=O)NCc3cccc(C(F)(F)F)c3)ccn2)c1 [Example 116] |
| 1 to 7.94 | O=C(O)CCSCc1cccc(C(=O)Nc2ccc(N3CCCCC3)cc2-c2cc(C(=O)NCc3ccc(Cl)c(C(F)(F)F)c3)ccn2)c1 [Example 1.33] |
| 1 to 7.94 | O=C(O)CCSCc1cccc(C(=O)Nc2ccc(N3CCCCC3)cc2-c2cc(C(=O)Nc3cccc(C(F)(F)F)c3)ccn2)c1 [Example 84] |
| 10 to 31.6 | CN(CCN1CCOCC1)C(=O)c1cccc(C(=O)Nc2ccc(N3CCCCC3)cc2-c2cc(OCc3cccc(C(F)(F)F)c3)ccn2)c1 [Example 99] |
| 1 to 7.94 | CN(CCOCCOCCOCCC(=O)OC(C)(C)C)CCN(C)C(=O)c1cccc(C(=O)Nc2ccc(N3CCCCC3)cc2-c2cc(C(=O)N[C@H]3CCCc4ccccc43)ccn2)c1 [Example 329, tert-butyl 3-methyl-1-[N-methyl-1-(3-{[4-(piperidin-1-yl)-2-(4-{[(1S)-1,2,3,4-tetrahydronaphthalen-1-yl]carbamoyl}pyridin-2-yl)phenyl]carbamoyl}phenyl)formamido]-6,9,12-trioxa-3-azapentadecan-15-oate] |
| 1 to 7.94 | CN(CCN1CCN(C(=O)OC(C)(C)C)CC1)C(=O)c1cccc(C(=O)Nc2ccc(N3CCCCC3)cc2-c2cc(C(=O)NCc3cccc(C(F)(F)F)c3)ccn2)c1 [Example 4.5, Tert-butyl 4-(2-(N-methyl-3-((4-(piperidin-1-yl)-2-(4-((3-(trifluoromethyl)benzyl)carbamoyl)pyridin-2-yl)phenyl)carbamoyl)benzamido)ethyl)piperazine-1-carboxylate] |
| 1 to 7.94 | CN(CCN1CCOCC1)C(=O)c1cccc(C(=O)Nc2ccc(OC3CCCC3)cc2-c2cc(C(=O)N[C@H]3CCCc4ccccc43)ccn2)c1 [Example 133, (S)—N^1-(4-(cyclopentyloxy)-2-(4-((1,2,3,4-tetrahydronaphthalen-1-yl)carbamoyl)pyridin-2-yl)phenyl)-N^3-methyl-N^3-(2-morpholinoethyl)isophthalamide] |
| 1 to 7.94 | O=C(O)CCSCc1cccc(C(=O)Nc2ccc(N3CCCCC3)cc2-c2cc(C(=O)NCc3ccc(N4CCCCC4)cc3)ccn2)c1 [Example 1.14] |
| < 1 | CCN(CC)c1ccc(NC(=O)c2cccc(CCCOCCOCCOCCOCCNC(=O)c3cscn3)c2)c(-c2cc(C(=O)N[C@H]3CCCc4ccccc43)ccn2)c1 [Example 326] |
| 1 to 7.94 | O=C(O)c1cccc(CSCc2cccc(C(=O)Nc3ccc(N4CCCCC4)cc3-c3cc(C(=O)NCc4cccc(C(F)(F)F)c4)ccn3)c2)c1 [Example 9.3, 3-(((3-((4-(Piperidin-1-yl)-2-(4-((3-(trifluoromethyl)benzyl)carbamoyl)pyridin-2-yl)phenyl)carbamoyl)benzyl)thio)methyl)benzoic acid] |
| 1 to 7.94 | CCN(CC)c1ccc(NC(=O)c2cccc(CCCOCCOCCOCCOCCN)c2)c(-c2cc(C(=O)NCc3cccc(C(F)(F)F)c3)ccn2)c1 [Example 270, 2-(2-(3-(1-amino-3,6,9,12-tetraoxapentadecan-15-yl)benzamido)-5-(diethylamino)phenyl)-N-(3-(trifluoromethyl)benzyl)isonicotinamide] |
| 1 to 7.94 | CN(CCN1CCOCC1)C(=O)c1cccc(C(=O)Nc2ccc(N3CCCCC3)cc2-c2cc(C(=O)NCc3cccc(C(F)(F)F)c3)ccn2)n1 [Example 11.1, N2-Methyl-N2-(2-morpholinoethyl)-N6-(4-(piperidin-1-yl)-2-(4-((3-(trifluoromethyl)benzyl)carbamoyl)pyridin-2-yl)phenyl)pyridine-2,6-dicarboxamide] |
| 10 to 31.6 | O=C(NCc1cccc(C(F)(F)F)c1)c1ccnc(-c2cc(N3CCCCC3)ccc2NC(=O)c2cccc(CSCCOCCOCCOCCOCCC(=O)N3CCC(N4CCOCC4)CC3)c2)c1 [Example 154, 2-(2-(3-(17-(4-morpholinopiperidin-1-yl)-17-oxo-5,8,11,14-tetraoxa-2-thiaheptadecyl)benzamido)-5-(piperidin-1-yl)phenyl)-N-(3-(trifluoromethyl)benzyl)isonicotinamide] |
| 1 to 7.94 | CCCN(C)c1ccc(NC(=O)c2cccc(C(=O)N(C)CCN3CCOCC3)c2)c(-c2cc(C(=O)NCc3cccc(C(F)(F)F)c3)ccn2)c1 [Example 129, N^1-methyl-N^3-(4-(methyl(propyl)amino)-2-(4-((3-(trifluoromethyl)benzyl)carbamoyl)pyridin-2-yl)phenyl)-N-(2-morpholinoethyl)isophthalamide] |
| 10 to 31.6 | CN(CCOCCOCCOCCC(=O)O)Cc1cccc(C(=O)Nc2ccc(N3CCCCC3)cc2-c2cc(C(=O)NCc3cccc(C(F)(F)F)c3)ccn2)n1 [Example 54, 2-Methyl-1-(6-((4-(piperidin-1-yl)-2-(4-((3-(trifluoromethyl)benzyl)carbamoyl)pyridin-2-yl)phenyl)carbamoyl)pyridin-2-yl)-5,8,11-trioxa-2-azatetradecan-14-oic acid] |
| 1 to 7.94 | O=C(O)CCSCc1cccc(C(=O)Nc2ccc(N3CCCCC3)cc2-c2cc(C(=O)NCC3CCCCC3)ccn2)c1 [Example 1.7] |
| 10 to 31.6 | CN(CCN1CCOCC1)C(=O)c1cccc(C(=O)Nc2ccc(N3CCCCC3)cc2-c2cc(C(F)(F)CCc3cccc(C(F)(F)F)c3)ccn2)c1 [Example 106] |
| 10 to 31.6 | O=C(O)CCSCc1cccc(C(=O)Nc2ccc(N3CCCCC3)cc2-c2cc(OCc3cccc(C(F)(F)F)c3)ccn2)c1 [Example 98] |
| 1 to 7.94 | O=C(O)CCSCc1cccc(C(=O)Nc2ccc(N3CCCCC3)cc2-c2cc(C(=O)NCc3ccc(OCc4ccccc4)cc3)ccn2)c1 [Example 1.39] |
| 10 to 31.6 | O=C(O)CCSCc1cccc(C(=O)Nc2ccc(N3CCCCC3)cc2-c2cc(Oc3cccc(C(F)(F)F)c3)ncn2)c1 [Example 3.9, 3-((3-((4-(Piperidin-1-yl)-2-(6-(3-(trifluoromethyl)phenoxy)pyrimidin-4-yl)phenyl)carbamoyl)benzyl)thio)propanoic acid] |
| 1 to 7.94 | CC(C)(CCO)SCc1cccc(C(=O)Nc2ccc(N3CCCCC3)cc2-c2cc(C(=O)NCc3cccc(C(F)(F)F)c3)ccn2)c1 [Example 92] |
| 10 to 31.6 | O=C(O)CCSCc1cccc(C(=O)Nc2ccc(N3CCCCC3)cc2-c2cc(C(=O)NCc3ccc(N4CCOCC4)cc3)ccn2)c1 [Example 78, 3-(3-(2-(4-(4-Morpholinobenzylcarbamoyl)pyridin-2-yl)-4-(piperidin-1-yl)-phenylcarbamoyl)benzylthio) propanoic acid] |
| 10 to 31.6 | O=C(O)CCSCc1cccc(C(=O)Nc2ccc(N3CCCCC3)cc2-c2cc(C(=O)NCc3cccc(C(F)(F)F)c3)ncn2)c1 [Example 87] |
